According to patent US4355104A, “Bacteriolytic proteins” (priority 1980, dated 1982):

Assays:
E. coli [1] = test: heat stability in boiling water bath, remaining lytic activity; assay type: physicochemical, Escherichia coli
Text: FIG. 3 is a graph depicting the effect of heat on the lytic activity of lysozyme and P9 proteins. The filled symbols in the figure indicate a pH of 6.4; the open symbols indicate a pH of 3.2. Activity against E. coli is denoted in the figure by triangles; activity against M. Luteus is denoted by squares.
The activity against E. coli (triangles) is compared in FIG. 3 to the activity against M. luteus (squares). The former activity is associated with the P9 proteins and the latter with the lysozyme.

E. coli [2] = test: influence of anions on lytic activity of P9 proteins; assay type: cell-based, Escherichia coli; details: 0.045 M MES-buffer, pH 6.3
Method: The lytic activity of the P9 proteins against E. coli at each stage of the process can be determined turbidimetrically and the total weight of protein measured. For this purpose, one unit of lytic activity is defined as the amount of factor giving 50% reduction of the absorbance of […] (50% lysis) compared to a control. […] A small volume, usually 10 μl, of the sample to be tested is added to 1 ml of bacterial suspension in an ice bath. In the control samples, an equal amount of buffer is substituted. The mixture is incubated (30 minutes at 37° C.) and transferred back to the ice bath during which most of the clearing of the E. coli suspension occurs. Results of such a determination, usually measured within 1 h, are tabulated below in Table 1.
The effects of sulfate or phosphate ions are hardly significant. The presence of acetate and formate buffers during the chromatography sequences until their removal by freeze-drying should be taken into account in interpreting the recovery data for protein P9 B in Table 1.

[3] = system: Serratia marcescens, Db11; test: anti-bacterial specificity, killing time; assay type: cell-based; details: time required for killing 90% of the bacteria; 3 x 10^6 cells/ml
Text: (§1) The lysis of E. coli is believed to be due to at least two very similar small and basic proteins designated P9A and P9B. The P9 proteins are active against gram negative bacteria such as E. coli K12 strain D21f2, E. coli K12 strain D21, E. coli K12 strain D31, Enterobacter cloacae, β11, Pseudomonas aeruginosa, OT97, and Serratia marcescens, Db1108 but not S. marcescens Db11. The E. coli K12, strain D31 is a penicillin and streptomycin resistant mutant with a defective lipopolysaccharide. S. marcescens Db11 is a streptomycin resistant mutant derived from a parental strain, pathologic for Drosophila. S. marcescens Db1108 is a spontaneous phage resistant mutant of Db11. The bacterial strains are discussed in Boman, H. G., Nilsson-Faye, I., Paul, K. & Rasmuson, T. (1974) Infect. Immun. 10, 136-145; Monner, D. A., Jonsson, S. & Boman, H. G. (1971) J. Bacteriol. 107, 420-432; and Boman, H. G. & Monner, D. A. (1975) J. Bacteriol. 121, 455-464.
(§2) The anti-bacterial specificity of P9 proteins was determined for gram negative bacteria. Killing time shown in Table 4 is the time required for killing 90% of the bacteria. […] It is also clear that the heptose-less mutant E. coli D21f2 and S. marcescens Db1108 both were more sensitive to P9 proteins than their respective parental strains, D21 and Db11.

[4] = system: Escherichia coli K12, D21f2; test: anti-bacterial specificity, killing time; assay type: cell-based; details: time required for killing 90% of the bacteria; 3 x 10^6 cells/ml
Text: as §1, §2

[5] = system: Pseudomonas aeruginosa, OT97; test: anti-bacterial specificity, killing time; assay type: cell-based; details: time required for killing 90% of the bacteria; 4 x 10^6 cells/ml
Text: as §1, §2

[6] = system: Serratia marcescens, Db1108; test: anti-bacterial specificity, killing time; assay type: cell-based; details: time required for killing 90% of the bacteria; 3 x 10^6 cells/ml
Text: as §1, §2

[7] = system: Escherichia coli K12, D21; test: anti-bacterial specificity, killing time; assay type: cell-based; details: time required for killing 90% of the bacteria; 4 x 10^6 cells/ml
Text: as §1, §2

[8] = system: Enterobacter cloacae, β11; test: anti-bacterial specificity, killing time; assay type: cell-based; details: time required for killing 90% of the bacteria; 3 x 10^6 cells/ml
Text: as §1, §2

E. coli, strain D31 = test: turbidimetric lytic activity against E. coli; assay type: cell-based, Escherichia coli; details: for Specific Lytic Activity: 1 unit = 50% lysis; for specific lytic activity against E. coli compared with immune hemolymph: versus starting material
Text: The lytic activity of the P9 proteins against E. coli at each stage of the process can be determined turbidimetrically and the total weight of protein measured. For this purpose, one unit of lytic activity is defined as the amount of factor giving 50% reduction of the absorbance of […] (50% lysis) compared to a control. Log phase E. coli, strain D31 can be centrifuged and suspended in ice-cold 0.1 M phosphate buffer, pH 6.4, to give a density of 30 units on a Klett-Summerson colorimeter (A570 0.3-0.5). A small volume, usually 10 μl, of the sample to be tested is added to 1 ml of bacterial suspension in an ice bath. In the control samples, an equal amount of buffer is substituted. The mixture is incubated (30 minutes at 37° C.) and transferred back to the ice bath during which most of the clearing of the E. coli suspension occurs. Results of such a determination, usually measured within 1 h, are tabulated below in Table 1.

E. coli D31 = test: simultaneous decrease of absorbance at 570 nm and viable count; assay type: cell-based, Escherichia coli; details: eight units per ml, 1 min
Method: For E. coli D31 the effect of P9 proteins can be observed by simultaneously following the decrease in the absorbance at 570 nm and the viable count of E. coli. Eight units of protein P9 B per ml in 1 min gave a reduction of viable count from 10^8 to <10^5 while the absorbance dropped 14%.

[9] = added salt: Ammonium formate, ionic strength 0.15 M
[10] = added salt: None, ionic strength 0.15 M with sodium chloride
[11] = added salt: Sodium acetate, ionic strength 0.15 M
[12] = added salt: Sodium phosphate, ionic strength 0.15 M
[13] = added salt: Sodium sulfate, ionic strength 0.15 M
[14] = fraction after Step 1 of chromatography

Substance	heat stability in words (E. coli [1])	Relative Activity (E. coli [2]; [9])	Relative Activity (E. coli [2]; [10])	Relative Activity (E. coli [2]; [11])	Relative Activity (E. coli [2]; [12])	Relative Activity (E. coli [2]; [13])	Killing Time [3]	Killing Time [4]	Killing Time [5]	Killing Time [6]	Killing Time [7]	Killing Time [8]	Specific Lytic Activity (E. coli, strain D31; after Step 2 and freeze-drying)	Specific Lytic Activity (E. coli, strain D31; [14])	specific lytic activity against E. coli compared with immune hemolymph (E. coli, strain D31)	increase in activity (E. coli [2]; acetate or formate ions, ionic strength 0.15 M with sodium chloride)	drop of absorbance at 570 nm (E. coli D31)	viable count after treatment (E. coli D31; reduction from 10^8)
N-LYS-TRP-LYS-LEU-PHE-LYS-LYS-ILE-GLU-LYS-VAL-GLY-GLN-ASN-ILE-ARG-ASP-GLY- ILE-ILE-LYS-ALA-GLY-PRO-ALA-VAL-ALA-VAL-VAL-GLY-GLN-ALA-THR-C (KWKLFKKIEKVGQNIRDGIIKAGPAVAVVGQAT; printed: LYS-TRP-LYS-LEU-PHE-LYS-LYS-ILE-GLU-LYS-VAL-GLY-GLN-ASN-ILE-ARG-ASP-GLY- ILE-ILE-LYS-ALA-GLY-PRO-ALA-VAL-ALA-VAL-VAL-GLY-GLN-ALA-THR-) [P9 A]	heat stable	1.3	1.0	0.9	0.8	0.6	> 120 min	< 0.25 min	10 min	48 min	0.60 min	12 min	5.6 Units/μg of protein	4.4 Units/μg of protein	substantially greater			
N-LYS-TRP-LYS-VAL-(MET)-ILE-(PHE)-LYS-LYS-ILE-(PHE)-GLU-LYS- -GLY-ARG-ASN-ILE-(PHE)-ARG-ASN-(LYS)-GLY- [P9 B]	heat stable	4.5	1.0	4.1	1.3	1.2	> 120 min	< 0.25 min	5 min	115 min	1 min	15 min	1.9 Units/μg of protein	5.3 Units/μg of protein	substantially greater	four-fold increase	14%	< 10^5
